Results on 5 compounds are retold here after patent US7488742B2, “Thrombin receptor antagonists” (Schering Corporation, priority 2000, dated 2009).

SMILES strings stand for the structures. pIC50: −log10 of the molar value.

For the assay, the target named is T1, thrombin receptor (Homo sapiens, UniProt P25116).
T1 construct: tissue North Jersey Blood Center (East Orange, N.J.); host or cells: platelet membranes from platelet concentrates
T1 sequence (P25116 22-425): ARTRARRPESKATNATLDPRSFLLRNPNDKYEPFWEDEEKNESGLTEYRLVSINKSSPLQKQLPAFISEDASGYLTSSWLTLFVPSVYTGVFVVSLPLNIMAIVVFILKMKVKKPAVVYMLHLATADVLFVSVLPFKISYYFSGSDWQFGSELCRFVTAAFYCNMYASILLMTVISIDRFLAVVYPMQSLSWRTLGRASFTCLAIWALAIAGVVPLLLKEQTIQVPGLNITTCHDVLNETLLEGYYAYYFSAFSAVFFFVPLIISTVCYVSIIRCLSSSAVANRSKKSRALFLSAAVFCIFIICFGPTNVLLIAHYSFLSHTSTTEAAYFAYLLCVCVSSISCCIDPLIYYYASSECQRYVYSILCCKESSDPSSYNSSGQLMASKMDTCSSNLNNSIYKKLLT
Briefly: High throughput thrombin receptor radioligand binding assay ([3H]haTRAP, platelet membranes). To be noted: [3H]haTRAP binding to platelet membranes; read-out: thrombin receptor IC50 (concentration at which a 50% inhibition of thrombin receptor was observed). The method, then: In Vitro Testing Procedure for Thrombin Receptor Antagonists:
The vessel was attached to the tritium line, frozen in liquid nitrogen and evacuated. […] At the completion of the reaction, the excess tritium was removed and the reacted peptide solution was diluted with DMF (0.5 ml) and filtered to remove the catalyst. The collected DMF solution of the crude peptide was diluted with water and freeze dried to remove the labile tritium. The solid peptide was redissolved in water and the freeze drying process repeated.
All steps were carried out at 4° C. under approved biohazard safety conditions. Platelets were centrifuged at 100×g for 20 minutes at 4° C. to remove red cells. The supernatants were decanted and centrifuged at 3000×g for 15 minutes to pellet platelets. […] This step was repeated two additional times. […] To complete membrane preparation, aliquots were thawed, pooled, and homogenized with 5 strokes of a Dounce homogenizer. Membranes were pelleted and washed 3 times in 10 mM triethanolamine-HCl, pH 7.4, 5 mM EDTA, and resuspended in 20-25 ml 50 mM Tris-HCl, pH 7.5, 10 mM MgCl2, 1 mM EGTA, and 1% DMSO.
High Throughput Thrombin Receptor Radioligand Binding Assay
Stock solutions (10 mM in 100% DMSO) of test compounds were further diluted in 100% DMSO. Unless otherwise indicated, 10 μl of diluted compound solutions and 90 μl of radioligand (a final concentration of 10 nM in 5% DMSO) were added to each well, and the reaction was started by the addition of 100 μl of membranes (40 μg protein/well). […] Compounds were tested at three concentrations (0.1, 1 and 10 μM).
Take `CC[C@H]1[C@H](/C=C/c2ccc(-c3ccccc3)cn2)[C@@H]2[C@@H](C)OC(=O)[C@]2(C(N)=O)C[C@@H]1C` [Example 17H]: the pIC50 is 7.00 to 9.00.
Turning to `C[C@H]1[C@H](/C=C/c2ccc(-c3ccccc3)cn2)[C@@H]2[C@@H](C)OC(=O)[C@]2(N)C[C@@H]1C` [Example 20E], the pIC50 is 7.00 to 9.00.
To `C[C@H]1[C@H](/C=C/c2ccc(-c3cccc(F)c3)cn2)[C@@H]2[C@@H](C)OC(=O)[C@]2(N)C[C@@H]1C` [Example 20F] belongs 7.00 to 9.00; to `C[C@H]1[C@H](/C=C/c2ccc(-c3cccc(C#N)c3)cn2)[C@@H]2[C@@H](C)OC(=O)[C@]2(N)C[C@@H]1C` [Example 20G], 7.00 to 9.00; to `C[C@H]1[C@H](/C=C/c2ccc(-c3ccccc3C#N)cn2)[C@@H]2[C@@H](C)OC(=O)[C@]2(N)C[C@@H]1C` [Example 20H], 7.00 to 9.00.
